Source: patent publication US4072668A, “LH-RH Analogs” (The Salk Institute for Biological Studies, priority 1974, dated 1978)
Non-standard residues stand in square brackets, D forms with d. Residues, ends and D or L forms follow the SMILES beside them. pGlu = O=C1CC[C@@H](C(=O)O)N1

Legend:
[1] = tested on: dispersed rat pituitary cells; assay: In vitro suppression of LRF-generated LH secretion in dispersed rat pituitary cell culture; type: cell-based; conditions: molar ratio of peptide to LRF; culture inoculated with 3×10^-5 M of LRF
Experimental: (§1) Using the above method, the peptide compositions set forth below in Tables I and II were prepared. The peptide compositions were assayed in vitro and in vivo. The in vitro assay was made using a 5 day old primary culture of dispersed rat pituitary cells. The LH secreted in response to the peptide compositions was assayed by specific radioimmunoassay for rat LH. The peptide compositions were applied to the culture at a level of 3×10^-5 M. The potency of these peptide compositions which stimulate secretion of gonadotropins is expressed in terms of percent LRF potency wherein LRF has a potency of 100. For those peptide compositions which are antagonistic to secretion of gonadotropins, the culture was inoculated with 3×10^-5 M of LRF and the molar ratio of the peptide required to suppress secretion of LH generated by the LRF was determined.

[2] = tested on: rats; assay: In vivo suppression of LH secretion generated by injected LRF in rats; design: species or system rat; conditions: molar ratio of peptide to LRF; rats injected with 100 nanograms of LRF
Experimental: (§2) The effectiveness of the peptide compositions which stimulate secretion of gonadotropins was determined in vivo by intravenous injection of 100 nanograms of the peptide into rats. The rats were chronically ovariectomized and were treated with estrogen and progesterone prior to assay. The LH level was determined in plasma by solid phase radioimmunoassay for rat LH. For those peptide compositions which are antagonistic to secretion of gonadotropins, the rats were injected with 100 nanograms of LRF and the molar ratio of the peptide required to suppress section of LH generated by the LRF was determined.

[3] = tested on: pituitary gland
[4] = tested on: rats; assay: In vivo plasma LH after intravenous injection into ovariectomized, estrogen/progesterone-treated rats; design: species or system rat; conditions: intravenous injection of 100 nanograms of peptide, LRF = 100
Experimental: as §2

[5] = tested on: dispersed rat pituitary cells; assay: In vitro LH secretion by primary culture of dispersed rat pituitary cells (stimulation), rat LH radioimmunoassay; type: cell-based; conditions: peptide applied to culture at 3×10^-5 M; LRF has a potency of 100
Experimental: as §1

[6] = tested on: pituitary gland; assay: Inhibition of release of gonadotropins by the pituitary gland (test not given); design: species or system mammalians; conditions: relative to Gly6 peptide
[7] = tested on: pituitary gland; assay: Release of gonadotropins after administration to a mammal; type: in vivo; conditions: 500 nanograms per kilogram of body weight

| Molecule | Molar ratio necessary to produce inhibition In Vitro [1] | Molar ratio necessary to produce inhibition In Vivo [2] | percent potency for effecting release of luteinizing hormone (compared to the LRF decapeptide) [3] [%] | further results |
| --- | --- | --- | --- | --- |
| CC(C)C[C@H](NC(=O)CNC(=O)[C@H](Cc1ccc(O)cc1)NC(=O)[C@H](CO)NC(=O)[C@H](Cc1c[nH]c2ccccc12)NC(=O)[C@@H]1CCC(=O)N1)C(=O)N[C@@H](CCCNC(=N)N)C(=O)N1CCC[C@H]1C(=O)NCC(N)=O [pGlu-deleted-Trp-Ser-Tyr-Gly-Leu-Arg-Pro-Gly-NH2] ([pGlu]WSYGLRPG-NH2) | 2,000 | 3,000 | – | – |
| CC(C)C[C@H](NC(=O)[C@H](C)NC(=O)[C@H](Cc1ccc(O)cc1)NC(=O)[C@H](CO)NC(=O)[C@H](Cc1c[nH]c2ccccc12)NC(=O)[C@H](Cc1c[nH]cn1)NC(=O)[C@@H]1CCC(=O)N1)C(=O)N[C@@H](CCCNC(=N)N)C(=O)N1CCC[C@H]1C(=O)NCC(N)=O [L-Ala for Gly in the 6-position of LRF] | – | – | 3 | – |
| pGlu-His-Trp-Ser-Tyr-Gly-Leu-Arg-Pro-NHCH 2 CH3 | – | – | – | Percent LRF Potency In Vivo [4]: 300%; Percent LRF Potency In Vitro [5]: 1,500% |
| CC(C)C[C@H](NC(=O)[C@@H](CC(C)C)NC(=O)[C@H](Cc1ccc(O)cc1)NC(=O)[C@H](CO)NC(=O)[C@H](Cc1c[nH]c2ccccc12)NC(=O)[C@H](Cc1c[nH]cn1)NC(=O)[C@@H]1CCC(=O)N1)C(=O)N[C@@H](CCCNC(=N)N)C(=O)N1CCC[C@H]1C(=O)NCC(N)=O [D-Leu for Gly] | – | – | 60 | – |
| CC(C)C[C@H](NC(=O)[C@@H](C)NC(=O)[C@H](Cc1ccc(O)cc1)NC(=O)[C@H](CO)NC(=O)[C@H](Cc1c[nH]c2ccccc12)NC(=O)[C@@H]1CCC(=O)N1)C(=O)N[C@@H](CCCNC(=N)N)C(=O)N1CCC[C@H]1C(=O)NCC(N)=O [pGlu-Trp-Ser-Tyr-D-Ala-Leu-Arg-Pro-Gly-NH2] ([pGlu]WSY[dA]LRPG-NH2) | 700 | 500 | – | times more potent as inhibitor for release of gonadotropins than the same peptide with Gly in the 6-position [6]: 3 times |
| CC(C)C[C@H](NC(=O)CNC(=O)[C@H](Cc1ccc(O)cc1)NC(=O)[C@H](CO)NC(=O)[C@H](Cc1c[nH]c2ccccc12)NC(=O)[C@H](Cc1c[nH]cn1)NC(=O)[C@@H]1CCC(=O)N1)C(=O)N[C@@H](CCCNC(=N)N)C(=O)N1CCC[C@H]1C(=O)NCC(N)=O [pGlu-His-Trp-Ser-Tyr-Gly-Leu-Arg-Pro-Gly-NH2] | – | – | – | release of gonadotropins by the pituitary gland (in words) [7]: significant release of gonadotropins |
| CCNC(=O)[C@@H]1CCCN1C(=O)[C@H](CCCNC(=N)N)NC(=O)[C@H](CC(C)C)NC(=O)[C@@H](C)NC(=O)[C@H](Cc1ccc(O)cc1)NC(=O)[C@H](CO)NC(=O)[C@H](Cc1c[nH]c2ccccc12)NC(=O)CNC(=O)[C@@H]1CCC(=O)N1 [pGlu-Gly-Trp-Ser-Tyr-D-Ala-Leu-Arg-Pro-NHCH2 CH3] ([pGlu]GWSY[dA]LRP-NHEt) | 700 | 500 | – | – |
| CC(C)C[C@H](NC(=O)[C@H](NC(=O)[C@H](Cc1ccc(O)cc1)NC(=O)[C@H](CO)NC(=O)[C@H](Cc1c[nH]c2ccccc12)NC(=O)[C@H](Cc1c[nH]cn1)NC(=O)[C@@H]1CCC(=O)N1)C(C)C)C(=O)N[C@@H](CCCNC(=N)N)C(=O)N1CCC[C@H]1C(=O)NCC(N)=O [D-Val for Gly] | – | – | 30 | – |
| CC(C)C[C@H](NC(=O)[C@H]1CCCN1C(=O)[C@H](Cc1ccc(O)cc1)NC(=O)[C@H](CO)NC(=O)[C@H](Cc1c[nH]c2ccccc12)NC(=O)[C@H](Cc1c[nH]cn1)NC(=O)[C@@H]1CCC(=O)N1)C(=O)N[C@@H](CCCNC(=N)N)C(=O)N1CCC[C@H]1C(=O)NCC(N)=O [D-Pro] | – | – | 10 | – |
